Measurements taken from a melting point compilation (Tetko et al.).

Row | Compound | melting point
1 | O=C(O)Cc1csc(-c2ccc(Cl)cc2)n1 | 255 to 257 °C
2 | CC(C)n1cnc(S(=O)(=O)Cl)c1 | 62 to 64 °C
3 | O=C1Nc2ccccc2N2CCC12 (stereo not drawn) | 169 to 171 °C
4 | CS(=O)(=O)c1cc(C#N)ccn1 | 143 to 145 °C
5 | Cc1n[nH]c(-c2ccc(Cl)c(Cl)c2)n1 | 200 to 202 °C
6 | O=C(O)c1c2c(nc3ccccc13)C(=Cc1cccc([N+](=O)[O-])c1)CCC2 | 299 to 301 °C
7 | O=C1NCCOc2ccccc21 | 110 to 112 °C
8 | Oc1ccc(C2=Nn3c(nnc3-c3ccc(Br)cc3)SC2)cc1O | 269 to 271 °C
9 | Nc1cc(-c2ccc(F)cc2)no1 | 100 to 102 °C
10 | N#Cc1cc(S(N)(=O)=O)ccc1Cl | 219 to 221 °C
11 | O=C(O)CCC(=O)N1CCOCC1 | 61 to 65 °C
12 | Nc1ccc(Cl)cc1-c1nc2ccccc2[nH]1 | 236 to 238 °C
13 | O=C(O)CCOc1ccc(Cl)cc1[N+](=O)[O-] | 127 to 129 °C
14 | N#Cc1ccc(C(=O)N2CCOCC2)cc1 | 144 to 146 °C
15 | O=C(O)Cn1nnc(COc2ccccc2)n1 | 111 to 113 °C
16 | CCc1cc(=O)c2ccccc2[nH]1 | 174 to 176 °C
17 | COc1ccc2c(c1)C=C(C#N)CO2 | 72 to 74 °C
18 | O=C(O)/C(=C\c1cccc(Cl)c1)c1cccs1 | 192 to 194 °C
19 | O=C(O)C(O)C1CC1 (stereo not drawn) | 66 to 68 °C
20 | Cc1ccc2c(C(=O)CC#N)c[nH]c2c1 | 268 to 270 °C
21 | Cc1ccc(C(=O)CCC(=O)O)cc1C | 127 to 129 °C
22 | O=C(Nc1nccs1)C(Cl)(Cl)Cl | 203 to 205 °C
23 | O=C1CC(NC(=O)C(F)(F)F)c2ccsc21 (stereo not drawn) | 133 to 135 °C
24 | CS(=O)Cc1c(C(=O)O)sc2ccccc12 (stereo not drawn) | 183 to 185 °C
25 | CNC(=O)CC(N)=NO | 119 to 121 °C

Row | Compound | melting point
26 | Cc1nnc2c(Cl)cccn12 | 163 to 165 °C
27 | COC(=O)c1ccccc1-n1ncc(Cl)c(Cl)c1=O | 125 to 127 °C
28 | CC(C)(C)Oc1ccc(N)cc1 | 60 to 62 °C
29 | CCCCCS(N)(=O)=O | 62 to 64 °C
30 | O=C1CCc2c(F)ccc(Br)c21 | 129 to 131 °C
31 | NCc1ccc(C(N)=O)cc1 | 141 to 143 °C
32 | Cc1cc(C(=O)O)cc(S(=O)(=O)Cl)c1F | 193 to 195 °C
33 | CCCC(C)C(N)C(=O)O (stereo not drawn) | 259 to 261 °C
34 | Cc1nc2ccccc2c(C)c1C(=O)O | 186 to 188 °C
35 | O=C1CC2(CCCC2)Oc2ccccc21 | 35 to 37 °C
36 | CC(C)[C@H](C(=O)O)N(C)C | 154 to 156 °C
37 | O=C(O)COc1ccc(F)cc1Cl | 140 to 142 °C
38 | COc1ccc(S(=O)(=O)NCC(=O)O)cc1OC | 173 to 175 °C
39 | N#Cc1ccc(N2N=C(c3ccccc3)CC2=O)cc1 | 211 to 213 °C
40 | O=C(Nc1ccc(O)cc1)C1CC1 | 212 to 214 °C
41 | O=C(O)Cn1cccn1 | 139 to 141 °C
42 | COc1ccc(C)cc1NC(=O)CCl | 73 to 75 °C
43 | ClCc1cnc(Cl)s1 | 31 to 33 °C
44 | Cn1cnc(S(=O)(=O)NCC(=O)O)c1 | 211 to 213 °C
45 | COC(=O)c1cc(OC)c(OC(F)F)cc1[N+](=O)[O-] | 96 to 98 °C
46 | COC(=O)c1sc2c(c1N)CCC(C(C)(C)C)C2 (stereo not drawn) | 153 to 155 °C
47 | Cc1ccc(O)c(C(=O)NCC(C)C)c1 | 51 to 53 °C
48 | CC(=O)c1cnn(-c2ccccn2)c1C | 75 to 77 °C
49 | O=C(O)CSCC(=O)N1CCOCC1 | 119 to 121 °C
50 | CC(C)(C)c1cc(N)n(-c2cccc(Cl)c2)n1 | 99 to 101 °C

Row | Compound | melting point
51 | O=C(O)c1nc(-c2ccccc2)oc1-c1ccccc1 | 193 to 195 °C
52 | Cc1cc(C(=O)O)c(N)s1 | 126 to 128 °C
53 | Clc1noc(-c2cccs2)n1 | 37 to 39 °C
54 | Cc1nnc(N)o1 | 183 to 185 °C
55 | NNC(=O)CCc1ccc(S(=O)(=O)N2CCOCC2)cc1 | 128 to 130 °C
56 | COc1ccc(C(=O)O)cc1N1CCNC1=O | 246 to 248 °C
57 | c1ccc(Cc2nnc3n2CCNC3)cc1 | 111 to 113 °C
58 | Cc1ccc(S(=O)(=O)Cl)cc1S(=O)(=O)N1CCCCC1 | 111 to 113 °C
59 | CS(=O)(=O)c1cccc(C(=O)NN)c1 | 144 to 146 °C
60 | CN(C)S(=O)(=O)c1ccc2oc(NN)nc2c1 | 218 to 220 °C
61 | COCCNc1c(N)n(Cc2ccccc2)c(=O)[nH]c1=O | 209 to 211 °C
62 | Nc1nc(-c2ccccc2)cn1N | 258 to 260 °C
63 | COc1ccc(-c2csc(C)n2)cc1OC | 74 to 76 °C
64 | COC(=O)CNc1ccccc1 | 45 to 47 °C
65 | NC(=O)N1CCC(=O)CC1 | 137 to 139 °C
66 | Nc1nc(-c2cccnc2)cs1 | 189 to 193 °C
67 | Cc1cc(CC#N)c(C)n1-c1ccc(Cl)cc1 | 74 to 76 °C
68 | CCOc1ccc(C#N)cn1 | 97 to 99 °C
69 | O=C(CCl)N1CCN(S(=O)(=O)c2ccccc2Cl)CC1 | 215 to 217 °C
70 | CCC(CC(=O)O)c1ccc(OC)cc1 (stereo not drawn) | 83 to 85 °C
71 | OC1CC2CCCC(C1)N2Cc1ccccc1 (stereo not drawn) | 57 to 59 °C
72 | O=S(=O)(Cl)c1cnccc1Cl | 45 to 47 °C
73 | Cc1cc(C=O)ccc1-n1cncn1 | 104 to 106 °C
